Where a name gives a salt, the structure may show the parent alone. Where only a bound is given, the exact number is not on record here.

T1 sequence (O35505 whole entry): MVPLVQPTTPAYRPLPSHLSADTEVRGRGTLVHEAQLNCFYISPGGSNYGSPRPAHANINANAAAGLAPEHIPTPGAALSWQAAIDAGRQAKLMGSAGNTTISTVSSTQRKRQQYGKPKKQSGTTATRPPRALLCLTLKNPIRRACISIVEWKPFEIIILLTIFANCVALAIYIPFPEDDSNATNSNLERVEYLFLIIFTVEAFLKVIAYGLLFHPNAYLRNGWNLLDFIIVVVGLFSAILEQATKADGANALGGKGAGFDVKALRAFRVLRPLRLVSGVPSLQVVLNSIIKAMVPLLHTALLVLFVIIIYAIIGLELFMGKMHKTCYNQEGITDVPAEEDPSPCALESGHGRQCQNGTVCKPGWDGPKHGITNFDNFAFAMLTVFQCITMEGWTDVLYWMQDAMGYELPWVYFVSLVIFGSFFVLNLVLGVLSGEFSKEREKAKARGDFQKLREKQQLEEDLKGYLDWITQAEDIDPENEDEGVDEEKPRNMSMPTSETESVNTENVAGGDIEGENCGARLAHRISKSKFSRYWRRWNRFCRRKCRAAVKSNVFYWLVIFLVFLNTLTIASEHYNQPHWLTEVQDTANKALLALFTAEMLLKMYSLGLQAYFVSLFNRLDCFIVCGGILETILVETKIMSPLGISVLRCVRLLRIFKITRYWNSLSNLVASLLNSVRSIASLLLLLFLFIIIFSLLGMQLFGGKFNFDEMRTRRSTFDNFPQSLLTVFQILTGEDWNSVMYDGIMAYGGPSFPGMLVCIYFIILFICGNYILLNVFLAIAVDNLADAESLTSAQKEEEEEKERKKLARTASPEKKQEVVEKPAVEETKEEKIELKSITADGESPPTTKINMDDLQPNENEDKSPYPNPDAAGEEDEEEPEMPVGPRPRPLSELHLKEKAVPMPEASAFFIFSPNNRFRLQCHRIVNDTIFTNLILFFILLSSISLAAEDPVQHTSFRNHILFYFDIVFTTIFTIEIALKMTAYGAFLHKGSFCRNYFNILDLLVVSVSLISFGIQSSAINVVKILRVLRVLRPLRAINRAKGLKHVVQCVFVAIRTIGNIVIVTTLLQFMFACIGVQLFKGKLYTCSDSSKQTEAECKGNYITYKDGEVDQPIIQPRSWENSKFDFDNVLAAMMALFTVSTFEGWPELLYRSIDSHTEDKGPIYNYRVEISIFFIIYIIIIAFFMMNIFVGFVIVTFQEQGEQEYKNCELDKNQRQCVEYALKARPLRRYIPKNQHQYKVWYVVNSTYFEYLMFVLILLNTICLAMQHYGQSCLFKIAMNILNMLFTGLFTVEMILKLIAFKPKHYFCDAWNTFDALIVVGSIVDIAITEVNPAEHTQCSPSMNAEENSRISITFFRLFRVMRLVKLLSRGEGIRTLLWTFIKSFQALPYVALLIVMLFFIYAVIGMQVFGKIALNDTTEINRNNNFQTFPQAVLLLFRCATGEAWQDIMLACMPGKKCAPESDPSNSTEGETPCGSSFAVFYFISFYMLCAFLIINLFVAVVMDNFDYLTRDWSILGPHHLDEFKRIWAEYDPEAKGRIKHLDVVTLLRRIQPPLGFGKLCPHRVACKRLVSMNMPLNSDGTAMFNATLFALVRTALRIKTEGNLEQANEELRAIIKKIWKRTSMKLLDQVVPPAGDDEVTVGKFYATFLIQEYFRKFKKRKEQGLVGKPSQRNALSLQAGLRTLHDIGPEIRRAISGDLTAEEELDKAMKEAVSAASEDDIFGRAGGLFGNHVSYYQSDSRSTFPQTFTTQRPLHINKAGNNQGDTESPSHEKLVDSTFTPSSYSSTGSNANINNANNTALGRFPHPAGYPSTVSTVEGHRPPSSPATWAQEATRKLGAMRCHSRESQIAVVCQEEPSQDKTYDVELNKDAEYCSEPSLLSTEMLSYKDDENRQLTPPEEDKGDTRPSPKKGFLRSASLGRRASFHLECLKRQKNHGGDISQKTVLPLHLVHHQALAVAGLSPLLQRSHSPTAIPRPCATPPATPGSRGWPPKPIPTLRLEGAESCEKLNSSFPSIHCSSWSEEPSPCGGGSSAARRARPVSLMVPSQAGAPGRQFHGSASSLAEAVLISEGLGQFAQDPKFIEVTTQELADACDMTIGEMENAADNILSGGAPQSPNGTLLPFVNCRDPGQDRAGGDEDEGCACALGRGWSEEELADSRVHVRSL

The test system of the first assay is Serotonin-Induced Diarrhea in Mice. In words: Inhibition of Serotonin-Induced Diarrhea in Mice. In kind it is in vivo, Male CF1 mice. As to conditions: Mus musculus, ip, 0.5 h, read-out: ED50 (95% confidence limits). As to the method: Inhibition of Serotonin-Induced Diarrhea in Mice.
. The mice were weighed and an average weight was used to calculate the amount of drug to be administered. Drugs were prepared in isotonic saline or an appropriate vehicle at varying concentrations and were administered intraperitoneally. Control animals were given vehicles without any test drug. Serotonin was given intraperitoneally (i.p.) in all cases 30 minutes after i.p. administration of test drug. Mice were placed in individual cages containing racks and paper liners with free access to water. Mice were observed after 30 minutes, 60 minutes and 180 minutes and graded for presence or absence of diarrhea. The grading system consisted of positive (+), negative (-) and (±) based on consistency and liquid staining. The ED50 (effective dose in 50% of population) was calculated for each test drug using the method of Litchfield-Wilcoxin. […]
For `CCN(CC)CC#CCCC1(C2(O)c3ccccc3Oc3ccccc32)SCCCS1` [2-(5-Diethylaminopent-3-ynyl)-2-(9-hydroxy-9H-xanthen-9-yl)-1,3-dithiane], the median effective dose (ED50) (commonly the dose at which the effect has come halfway, by size or by number of responders) came out at 20.7 mg/kg.

The assay is the same for the next values; noted with them: Mus musculus, ip, 0.5 h; i.p., serotonin i.p. 30 minutes after test drug; mice; Litchfield-Wilcoxin; read-out: ED50 (95% confidence limits).
As to `CN(C)C(=O)C(CCN1CCC(O)(c2ccc(Cl)cc2)CC1)(c1ccccc1)c1ccccc1` [loperamide, reference compound], the ED50 was 0.16 mg/kg. Still for that read-out and setting: as for `COc1ccc(CCN(C)CCCC(C#N)(c2ccc(OC)c(OC)c2)C(C)C)cc1OC` (centres unmarked) [verapamil], the figure is 13.3 mg/kg.

The next assay relates to substance P-induced Cl- ion secretion by guinea-pig isolated ileal mucosa.
Experiment: not given
In kind it is cell-based. As to conditions: antagonist 5 μM serosal and mucosal, 5 minutes prior to substance P (1 μM).
`CN(C)C(=O)C(CCN1CCC(O)(c2ccc(Cl)cc2)CC1)(c1ccccc1)c1ccccc1` [loperamide, reference compound]: the “percent inhibition of substance P-induced increase in Isc” value is recorded as 36.1%. Still for that read-out and setting: as for `CCN(CC)CC#CCCC1(C2(O)c3ccccc3Oc3ccccc32)SCCCS1` [2-(5-Diethylaminopent-3-ynyl)-2-(9-hydroxy-9H-xanthen-9-yl)-1,3-dithiane], the figure is 55.2%.

A further assay concerns the target T1, calcium channel (guinea-pig isolated ileal longitudinal smooth muscle) (Cavia porcellus, UniProt O35505).
T1 construct: The longitudinal smooth muscle is carefully separated from the underlying circular muscle layer; from tissue; host or cells: guinea-pig ileal longitudinal smooth muscle
In words: Calcium Channel Antagonist Activity in Guinea-Pig Isolated Ileal Smooth Muscle. In kind it is cell-based.
Conditions: not given
The source says: Calcium Channel Antagonist Activity in Guinea-Pig Isolated Ileal Smooth Muscle.
Male albino guinea-pigs are sacrificed by stunning and exsanguination. The abdominal cavity is opened and the small intestine is removed, with about 10 cm of the terminal ileum being discarded. The tissue is placed in a dish containing Tyrode's solution (composition, mM: […]; KCl 2.68; NaHCO3 11.90; NaH2 PO4 0.36; MgCl2 0.98; CaCl2 1.77; dextrose 5.55), and cut into three to four segments. A glass rod (6 mm diameter) is carefully inserted into the lumen of each segment, and excess connective tissue or fat is removed. The longitudinal smooth muscle is carefully separated from the underlying circular muscle layer by gently stroking a moist cotton swab on a tangent to shallow, longitudinal incisions made parallel to the mesenteric attachment. Using gentle traction, and taking care to keep the segment moist at all times, the preparation is stripped from the remaining length of the ileal segment (Paton & Zar, J. Physiol. 194, 13; 1968).
Each preparation is suspended in a 10 mL jacketed glass tissue bath containing Tyrode's solution maintained at 37° C. and gassed with 5% CO2 in O2. The preparation is attached by silk thread to a force-displacement transducer. […] The initial resting tension is adjusted to 0.5 g and the preparation equilibrated for 55 minutes prior to experimentation. At the end of this period, the bathing solution is replaced with Ca^2+ -free Tyrode's solution. This solution is prepared by omitting CaCl2. The preparation is washed four times in Ca^2+ -free Tyrode 's to remove any Ca^2+ remaining in the bath, and allowed to equilibrate for a further 20 minutes.
Concentration-response curves to CaCl2 are obtained using the following procedure. Preparations are exposed to a depolarizing concentration of KCl (80 mM) for 6 minutes. At the end of this period CaCl2 is added to the bath cumulatively in the concentration range 0.2-8.0 mM. Successive additions of each Ca^2+ concentration are carried out only when the previous response has reached a plateau. When the maximum response has been attained the bath is again washed (five times) with Ca^2+ -free buffer, and the preparation re-equilibrated for approximately 15 minutes. A second Ca^2+ concentration-response curve is then obtained in the same manner. This second curve serves as control for that tissue.
Further curves are obtained in the presence of increasing concentrations of the test drugs. Where appropriate, the test drug is added to the bath immediately following addition of KCl, and 6 minutes later the concentration-response curve to Ca^2+ is obtained. Each test preparation is exposed to three different concentrations of a test drug.
For each ileal preparation, the control EC50 for Ca^2+ (the concentration producing 50% of the maximum response) is determined from the control concentration-response curve. Calcium blocking activity is defined as a Kb value (the concentration producing a two-fold dextral shift in the control curve), calculated from EC50 ratios in the absence and presence of test drugs.
Take `CCN(CC)CC#CCCC1(C2(O)c3ccccc3Oc3ccccc32)SCCCS1` [2-(5-Diethylaminopent-3-ynyl)-2-(9-hydroxy-9H-xanthen-9-yl)-1,3-dithiane]: the Kb (in general, the affinity of an antagonist, worked out from how it opposes an agonist) was 156 ± 30 nM.

Staying with this assay, now noted: Kb = concentration producing a two-fold dextral shift in the control CaCl2 concentration-response curve; KCl (80 mM) depolarized ileal smooth muscle; read-out: Calcium antagonist Kb.
As for `CN(CC#CCCC1SCCCS1)Cc1ccc2ccccc2c1` [2-[5-(2-Naphthylmethyl)methylaminopent-3-ynyl]-1,3-dithiane Oxalate], the Kb came out at 8330 ± 2040 nM. `CCN(C)CC#CCCC1(C2(O)c3ccccc3Sc3ccc(Cl)cc32)SCCCS1` (centres unmarked) [2-(5-Ethylmethylaminopent-3-ynyl)-2-(2-chloro-9-hydroxy-9H-thioxanthen-9-yl)-1,3-dithiane]: the Kb stood at 2530 ± 1030 nM. Turning to `CCN(CC)CC#CCCC1(C(C)(O)c2ccccc2)SCCCS1` (stereo not drawn) [2-(5-Diethylaminopent-3-ynyl)-2-(α-hydroxy-α-methylbenzyl)-1,3-dithiane], the Kb was determined as 2510 ± 400 nM. With `CN(CC#CCCC1SCCCS1)Cc1ccccc1` [2-[5-(Benzylmethylaminopent-3-ynyl]-1,3-dithiane Oxalate], the Kb was determined as 8020 ± 2740 nM. Same read-out and setting: as for `CCN(CC)CC#CCCC1(C(c2ccccc2)c2ccccc2)SCCCS1` [2-(5-Diethylaminopent-3-ynyl)-2-benzhydryl-1,3-dithiane Oxalate Hydrate], the figure is 500 nM; as for `CN1CCN(CC#CCCC2(C3(O)c4ccccc4Oc4ccccc43)SCCCS2)CC1` [2-[5-(4-Methylpiperazinyl)pent-3-ynyl]-2-(9-hydroxy-9H-xanthen-9-yl)-1,3-dithiane Dioxalate], 488 ± 30 nM.

As for `CN(C)CC#CCCC1(C2(O)c3ccccc3Sc3ccc(Cl)cc32)SCCCS1` (centres unmarked) [2-(5-Dimethylaminopent-3-ynyl)-2-(2-chloro-9-hydroxy-9H-thioxanthen-9-yl)-1,3-dithiane], the Kb is 2330 ± 180 nM. On the same count and under the same terms, as for `CN(CC#CCCC1(C2(O)c3ccccc3Sc3ccc(Cl)cc32)SCCCS1)CCCc1ccccc1` (centres unmarked) [2-[5-(3Phenylpropyl)methylaminopent-3-ynyl)-2-(2-chloro-9-hydroxy-9H-thioxanthen-9-yl)-1,3-dithiane Hemioxalate], the figure is more than 7000 nM; as for `COc1ccc(CCN(C)CC#CCCC(O)(c2ccccc2)C2SCCCS2)cc1OC` (centres unmarked) [2[6-[2-(3,4-dimethoxyphenyl)ethyl]methylamino-1-hydroxy-1-phenylhex-4-ynyl]-1,3-dithiane], 1230 ± 530 nM; as for `OC1(C2(CCC#CCN3CCCCC3)SCCCS2)c2ccccc2-c2ccccc21` [2-(5-Piperidinylpent-3-ynyl)-2-(9-hydroxy-9H-fluoren-9-yl)-1,3-dithiane], 1000 ± 70 nM. The same measure, in the same setting: next, `CCN(CC)CC#CCCC1(C(O)(c2ccccc2)C2CCCC2)SCCCS1` (stereo not drawn) [2-(5-Diethylaminopent-3-ynyl)-2-(α-cyclopentyl-α-hydroxybenzyl-1,3-dithiane Oxalate]: 500 nM; `OCCN1CCN(CC#CCCC2SCCCS2)CC1` [2-[5-[4-(2-Hydroxyethyl)piperazinyl]pent-3-ynyl]-1,3-dithiane Dioxalate]: more than 10000 nM. Still for that read-out and setting: as for `C(#CCN1CCCC1)CCC1SCCCS1` [2-(5-Pyrrolidinylpent-3-ynyl)-1,3-dithiane Oxalate], the figure is more than 10000 nM; as for `CCN(CC)CC#CCCC1(C2(O)c3ccccc3Sc3ccc(Cl)cc32)SCCCS1` (centres unmarked) [2-(5-Diethylaminopent-3-ynyl)-2-(2-chloro-9-hydroxy-9H-thioxanthen-9-yl)-1,3-dithiane Oxalate], 330 ± 50 nM; as for `CCN(CC)CC#CCCC1(C2(O)c3ccccc3Sc3ccccc32)SCCCS1` [2-(5-Diethylaminopent-3-ynyl)-2-(9-hydroxy-9H-thioxanthen-9-yl)-1,3-dithiane Oxalate], 125 ± 18 nM.

For `CN(C)CC#CCCC1(C2(O)c3ccccc3Oc3ccccc32)SCCCS1` [2-(5-Dimethylaminopent-3-ynyl)-2-(9-hydroxy-9H-xanthen-9-yl)-1,3-dithiane], the antagonist dissociation constant (Kb) came to 1150 ± 200 nM. Still for that read-out and setting: as for `CCN(CC)CC#CCCC(O)(c1ccccc1)C1SCCCS1` (centres unmarked) [2-(6-diethylamino-1-hydroxy-1-phenylhex-4-ynyl)-1,3-dithiane oxalate], the figure is 6710 ± 1450 nM; as for `CCN(CC)CC#CCCC1(C2(O)c3ccccc3-c3ccccc32)SCCCS1` [2(5-Diethylaminopent-3-ynyl)-2-(9-hydroxy-9H-fluoren-9-yl)-1,3-dithiane], 500 ± 100 nM. Take `OC1(C2(CCC#CCN3CCCCC3)SCCCS2)c2ccccc2Sc2ccc(Cl)cc21` (centres unmarked) [2-(5-Piperidinylpent-3-ynyl)-2-(2-chloro-9-hydroxy-9H-thioxanthen-9-yl)-1,3-dithiane]: the Kb was determined as 6090 ± 1560 nM. Still for that read-out and setting: as for `CCN(CC)CC#CCCC1(C(O)(c2ccccc2)c2ccccc2)SCCCS1` [2-(5-Diethylaminopent-3-ynyl)-2-(α-hydroxy-α-phenylbenzyl)-1,3-dithiane Oxalate], the figure is 980 ± 160 nM; as for `CN(C)CC#CCCC1(C2(O)c3ccccc3Sc3ccccc32)SCCCS1` [2-(5-Dimethylaminopent-3-ynyl)-2-(9-hydroxy-9H-thioxanthen-9-yl)-1,3-dithiane], 680 ± 130 nM; as for `CN(CC#CCCC1(c2ccccc2)SCCCS1)CCc1ccccc1` [2-[5-(2-Phenylethyl)methylaminopent-3-ynyl]-2-phenyl-1,3-dithiane Oxalate], 1740 ± 1080 nM. Turning to `CN(CC#CCCCC1SCCCS1)Cc1ccccc1` [2-(6-Benzylmethylaminohex-4-ynyl)-1,3-dithiane Oxalate], the antagonist equilibrium constant (Kb) worked out at 4450 ± 160 nM. As to `CN(CC#CCCC1SCCCS1)CCc1ccccc1` [2-[5-(2-Phenylethyl)methylaminopent-3-ynyl]-1,3-dithiane Oxalate], the Kb stood at 2270 ± 730 nM.

Regarding `CCCN(CC#CCCCC1(C2(O)c3ccccc3-c3ccccc32)SCCCS1)CCC` [2-(6-Dipropylaminohex-4-ynyl)-2-(9-hydroxy-9H-fluoren-9-yl)-1,3-dithiane], the Kb turned out to be 560 ± 80 nM.

Take `C(#CCN1CCCCC1)CCC1SCCCS1` [2-(5-Piperidinylpent-3-ynyl)-1,3-dithiane Oxalate]: the antagonist equilibrium constant (Kb) was more than 10000 nM. Consider `OC1(C2(CCC#CCN3CCCCC3)SCCCS2)c2ccccc2Sc2ccccc21` [2-(5-Piperidinylpent-3-ynyl)-2-(9-hydroxy-9H-thioxanthen-9-yl)-1,3-dithiane], for which the Kb was found to be 3660 ± 2040 nM. Still for that read-out and setting: as for `CCN(CC)CC#CCCC1SCCCS1` [2-(5-Diethylaminopent-3-ynyl)-1,3-dithiane Oxalate], the figure is more than 10000 nM.

For `CCN(CC)CC#CCC1(c2ccccc2)SCCCS1` [2-(4-diethylaminobut-2-ynyl)-2-phenyl-1,3-dithiane oxalate], the antagonist equilibrium constant (Kb) was determined as 4270 ± 430 nM.

Source of the values: patent US4877779A, “2-aminomethylalkynylalkyl-1,3-dithiane derivatives” (priority 1988, dated 1989).
